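Exposure lasted 48 hours, with cells grown in 96-well plates and compounds tested at five concentrations. Here, GI50 denotes the concentration required for 50% inhibition of growth. At the TGI there is no net growth.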
Tests used:
Assay in all cases: NCI tumour cell line growth inhibition, 48 h
NCI-H226 lung = test system: NCI-H226 lung
OVCAR-3 ovarian = test system: OVCAR-3 ovarian
SK-OV-3 ovarian = test system: SK-OV-3 ovarian
K-562 leukemia = test system: K-562 leukemia
NCI-H460 lung = test system: NCI-H460 lung
ACHN renal = test system: ACHN renal
UACC-257 melanoma = test system: UACC-257 melanoma
UO-31 renal = test system: UO-31 renal
RXF 393 renal = test system: RXF 393 renal
MDA-MB-231 breast = test system: MDA-MB-231 breast
NCI-H522 lung = test system: NCI-H522 lung
MALME-3M melanoma = test system: MALME-3M melanoma
SN12C renal = test system: SN12C renal
SNB-75 CNS = test system: SNB-75 CNS
HL-60(TB) leukemia = test system: HL-60(TB) leukemia
HOP-92 NSCLC = test system: HOP-92 NSCLC
SNB-19 CNS = test system: SNB-19 CNS
KM12 colon = test system: KM12 colon
786-0 renal = test system: 786-0 renal
SW-620 colon = test system: SW-620 colon
DU-145 prostate = test system: DU-145 prostate
HOP-62 NSCLC = test system: HOP-62 NSCLC
CAKI-1 renal = test system: CAKI-1 renal
PC-3 prostate = test system: PC-3 prostate
SK-MEL-5 melanoma = test system: SK-MEL-5 melanoma
UACC-62 melanoma = test system: UACC-62 melanoma
NCI/ADR-RES ovarian = test system: NCI/ADR-RES ovarian
M14 melanoma = test system: M14 melanoma
RPMI-8226 leukemia = test system: RPMI-8226 leukemia
EKVX NSCLC = test system: EKVX NSCLC
BT-549 breast = test system: BT-549 breast
U251 CNS = test system: U251 CNS
NCI-H23 lung = test system: NCI-H23 lung
LOX IMVI melanoma = test system: LOX IMVI melanoma
A549 NSCLC = test system: A549 NSCLC
SR leukemia = test system: SR leukemia
TK-10 renal = test system: TK-10 renal
SF-295 CNS = test system: SF-295 CNS
HS 578T breast = test system: HS 578T breast
MCF7 breast = test system: MCF7 breast
HCT-15 colon = test system: HCT-15 colon
IGROV1 ovarian = test system: IGROV1 ovarian
OVCAR-4 ovarian = test system: OVCAR-4 ovarian
SK-MEL-28 melanoma = test system: SK-MEL-28 melanoma
MDA-MB-435 = test system: MDA-MB-435
HT29 colon = test system: HT29 colon
T-47D breast = test system: T-47D breast
HCT-116 colon = test system: HCT-116 colon
SF-268 CNS = test system: SF-268 CNS
SK-MEL-2 melanoma = test system: SK-MEL-2 melanoma
OVCAR-8 ovarian = test system: OVCAR-8 ovarian
MOLT-4 leukemia = test system: MOLT-4 leukemia
COLO 205 colon = test system: COLO 205 colon
CCRF-CEM leukemia = test system: CCRF-CEM leukemia
SF-539 CNS = test system: SF-539 CNS
A498 renal = test system: A498 renal
HCC-2998 colon = test system: HCC-2998 colon

Compound: O=C1C=CC2(NN=C(c3ccccc3)N2c2ccccc2)c2cccc(O)c21 (centres undefined)
- GI50 (NCI-H226 lung): 1.83 µM
- TGI (NCI-H226 lung): 4.53 µM
- GI50 (OVCAR-3 ovarian): 1.08 µM
- TGI (OVCAR-3 ovarian): 3.7 µM
- GI50 (SK-OV-3 ovarian): 11.8 µM
- TGI (SK-OV-3 ovarian): 98 µM
- GI50 (K-562 leukemia): 1.6 µM
- TGI (K-562 leukemia): 21 µM
- GI50 (NCI-H460 lung): 2.56 µM
- TGI (NCI-H460 lung): 10.2 µM
- GI50 (ACHN renal): 3.11 µM
- TGI (ACHN renal): 21.5 µM
- GI50 (UACC-257 melanoma): 1.47 µM
- TGI (UACC-257 melanoma): 2.93 µM
- GI50 (UO-31 renal): 1.46 µM
- TGI (UO-31 renal): 7.67 µM
- GI50 (RXF 393 renal): 7.36 µM
- TGI (RXF 393 renal): 25 µM
- GI50 (MDA-MB-231 breast): 2.37 µM
- TGI (MDA-MB-231 breast): 33.9 µM
- GI50 (NCI-H522 lung): 1.21 µM
- TGI (NCI-H522 lung): 3.4 µM
- GI50 (MALME-3M melanoma): 1.28 µM
- TGI (MALME-3M melanoma): 2.58 µM
- GI50 (SN12C renal): 1.47 µM
- TGI (SN12C renal): 2.84 µM
- GI50 (SNB-75 CNS): 1.82 µM
- TGI (SNB-75 CNS): 3.44 µM
- GI50 (HL-60(TB) leukemia): 2.77 µM
- TGI (HL-60(TB) leukemia): 8.03 µM
- GI50 (HOP-92 NSCLC): 22.8 µM
- TGI (HOP-92 NSCLC): 54.2 µM
- GI50 (SNB-19 CNS): 1.59 µM
- TGI (SNB-19 CNS): 10.8 µM
- GI50 (KM12 colon): 2.65 µM
- TGI (KM12 colon): 18 µM
- GI50 (786-0 renal): 6.13 µM
- TGI (786-0 renal): 43 µM
- GI50 (SW-620 colon): 1.67 µM
- TGI (SW-620 colon): 3.64 µM
- GI50 (DU-145 prostate): 1.27 µM
- TGI (DU-145 prostate): 2.56 µM
- GI50 (HOP-62 NSCLC): 0.693 µM
- TGI (HOP-62 NSCLC): 2.22 µM
- GI50 (CAKI-1 renal): 5.71 µM
- TGI (CAKI-1 renal): 50.3 µM
- GI50 (PC-3 prostate): 3.19 µM
- TGI (PC-3 prostate): > 100 µM
- GI50 (SK-MEL-5 melanoma): 0.272 µM
- TGI (SK-MEL-5 melanoma): 0.706 µM
- GI50 (UACC-62 melanoma): 1.05 µM
- TGI (UACC-62 melanoma): 2.26 µM
- GI50 (NCI/ADR-RES ovarian): 1.62 µM
- TGI (NCI/ADR-RES ovarian): 30.9 µM
- GI50 (M14 melanoma): 1.3 µM
- TGI (M14 melanoma): 2.6 µM
- GI50 (RPMI-8226 leukemia): 3.52 µM
- TGI (RPMI-8226 leukemia): > 100 µM
- GI50 (EKVX NSCLC): 1.41 µM
- TGI (EKVX NSCLC): 14.5 µM
- GI50 (BT-549 breast): 1.13 µM
- TGI (BT-549 breast): 2.69 µM
- GI50 (U251 CNS): 0.587 µM
- TGI (U251 CNS): 20.2 µM
- GI50 (NCI-H23 lung): 0.46 µM
- TGI (NCI-H23 lung): 2.18 µM
- GI50 (LOX IMVI melanoma): 0.275 µM
- TGI (LOX IMVI melanoma): 1.28 µM
- GI50 (A549 NSCLC): 1.84 µM
- TGI (A549 NSCLC): 5 µM
- GI50 (SR leukemia): 4.38 µM
- TGI (SR leukemia): 76.9 µM
- GI50 (TK-10 renal): 5.46 µM
- TGI (TK-10 renal): 46 µM
- GI50 (SF-295 CNS): 1.34 µM
- TGI (SF-295 CNS): 3.18 µM
- GI50 (HS 578T breast): 2.86 µM
- TGI (HS 578T breast): 7.63 µM
- GI50 (MCF7 breast): 1.5 µM
- TGI (MCF7 breast): 3.83 µM
- GI50 (HCT-15 colon): 0.472 µM
- TGI (HCT-15 colon): 2.37 µM
- GI50 (IGROV1 ovarian): 3.19 µM
- TGI (IGROV1 ovarian): 17.1 µM
- GI50 (OVCAR-4 ovarian): 0.698 µM
- TGI (OVCAR-4 ovarian): 3.21 µM
- GI50 (SK-MEL-28 melanoma): 1.99 µM
- TGI (SK-MEL-28 melanoma): 4.38 µM
- GI50 (MDA-MB-435): 0.185 µM
- TGI (MDA-MB-435): 0.336 µM
- GI50 (HT29 colon): 2.53 µM
- TGI (HT29 colon): 6.21 µM
- GI50 (T-47D breast): 4.88 µM
- TGI (T-47D breast): 37.7 µM
- GI50 (HCT-116 colon): 1.38 µM
- TGI (HCT-116 colon): 5.26 µM
- GI50 (SF-268 CNS): 1.84 µM
- TGI (SF-268 CNS): 14.3 µM
- GI50 (SK-MEL-2 melanoma): 4.6 µM
- TGI (SK-MEL-2 melanoma): 21.5 µM
- GI50 (OVCAR-8 ovarian): 2.4 µM
- TGI (OVCAR-8 ovarian): > 100 µM
- GI50 (MOLT-4 leukemia): 6.81 µM
- TGI (MOLT-4 leukemia): > 100 µM
- GI50 (COLO 205 colon): 1.89 µM
- TGI (COLO 205 colon): 3.83 µM
- GI50 (CCRF-CEM leukemia): 4.83 µM
- TGI (CCRF-CEM leukemia): > 100 µM
- GI50 (SF-539 CNS): 1.26 µM
- TGI (SF-539 CNS): 2.79 µM
- GI50 (A498 renal): 5.52 µM
- TGI (A498 renal): 19.6 µM
- GI50 (HCC-2998 colon): 3.83 µM
- TGI (HCC-2998 colon): 13 µM
